{
  "source": "ChEMBL document CHEMBL4393697",
  "about": "“Lipophilic efficient phenylthiazoles with potent undecaprenyl pyrophosphatase inhibitory activity” (Eur J Med Chem, 2019)",
  "key": {"Staphylococcus aureus [1]": {"tested_on": "Staphylococcus aureus", "experiment": "Antibacterial activity against methicillin-resistant Staphylococcus aureus USA400 assessed as reduction in CFU at 4 x MIC preincubated for 6 hrs in Tryptic soy broth followed by incubation for 18 to 20 hrs on TSA plate by time-kill assay", "assay_type": "functional, organism-based"}, "Staphylococcus aureus [2]": {"tested_on": "Staphylococcus aureus", "experiment": "Antibacterial activity against vancomycin resistant Staphylococcus aureus VRS11a assessed as reduction in bacterial cell growth incubated for 18 to 20 hrs by broth microdilution method", "assay_type": "functional"}, "Staphylococcus aureus [3]": {"tested_on": "Staphylococcus aureus", "experiment": "Bactericidal activity against vancomycin resistant Staphylococcus aureus VRS10 assessed as reduction in bacterial cell growth incubated for 18 to 20 hrs followed by re-plating on tryptic soy agar plates at 37 degC for 18 hrs by broth microdilution assay", "assay_type": "functional"}, "[4]": {"tested_on": "Staphylococcus epidermidis", "experiment": "Bactericidal activity against methicillin resistant Staphylococcus epidermidis NRS101 assessed as reduction in bacterial cell growth incubated for 18 to 20 hrs followed by re-plating on tryptic soy agar plates at 37 degC for 18 hrs by broth microdilution assay", "assay_type": "functional"}, "Streptococcus pneumoniae [5]": {"tested_on": "Streptococcus pneumoniae", "experiment": "Bactericidal activity against Cephalosporin resistant Streptococcus pneumoniae ATCC 51916 assessed as reduction in bacterial cell growth incubated for 18 to 20 hrs followed by re-plating on tryptic soy agar plates at 37 degC for 18 hrs by broth microdilution assay", "assay_type": "functional"}, "Acinetobacter baumannii": {"tested_on": "Acinetobacter baumannii", "experiment": "Antibacterial activity against Acinetobacter baumannii ATCC 19606 assessed as reduction in bacterial cell growth incubated for 18 to 20 hrs by broth microdilution method", "assay_type": "functional"}, "Escherichia coli": {"tested_on": "Escherichia coli", "experiment": "Antibacterial activity against Escherichia coli BW25113 assessed as reduction in bacterial cell growth incubated for 18 to 20 hrs by broth microdilution method", "assay_type": "functional"}, "Staphylococcus aureus [6]": {"tested_on": "Staphylococcus aureus", "experiment": "Antibacterial activity against methicillin-resistant Staphylococcus aureus USA400 treated over 14 passages by broth microdilution assay", "assay_type": "functional, organism-based"}, "Staphylococcus aureus [7]": {"tested_on": "Staphylococcus aureus", "experiment": "Ratio of MBC to MIC for Staphylococcus aureus ATCC 6538 by broth microdilution assay", "assay_type": "functional"}, "Staphylococcus aureus [8]": {"tested_on": "Staphylococcus aureus", "experiment": "Ratio of MBC to MIC for Staphylococcus aureus NRS107 by broth microdilution assay", "assay_type": "functional"}, "Enterococcus faecalis": {"tested_on": "Enterococcus faecalis", "experiment": "Ratio of MBC to MIC for vancomycin resistant Enterococcus faecalis ATCC 51299 by broth microdilution method", "assay_type": "functional"}, "Enterococcus faecium": {"tested_on": "Enterococcus faecium", "experiment": "Ratio of MBC to MIC for vancomycin resistant Enterococcus faecium ATCC 700221 by broth microdilution method", "assay_type": "functional"}, "Listeria monocytogenes": {"tested_on": "Listeria monocytogenes", "experiment": "Ratio of MBC to MIC for Listeria monocytogenes ATCC 19111 by broth microdilution assay", "assay_type": "functional"}, "Streptococcus pneumoniae [9]": {"tested_on": "Streptococcus pneumoniae", "experiment": "Ratio of MBC to MIC for Cephalosporin resistant Streptococcus pneumoniae ATCC 51916 by broth microdilution method", "assay_type": "functional"}, "Streptococcus pneumoniae [10]": {"tested_on": "Streptococcus pneumoniae", "experiment": "Ratio of MBC to MIC for Methicillin resistant Streptococcus pneumoniae ATCC 700677 by broth microdilution method", "assay_type": "functional"}, "Staphylococcus aureus [11]": {"tested_on": "Staphylococcus aureus", "experiment": "Antibacterial activity against methicillin-resistant Staphylococcus aureus USA400 assessed as reduction in CFU at 4 x MIC preincubated for 12 hrs in Tryptic soy broth followed by incubation for 18 to 20 hrs on TSA plate by time-kill assay", "assay_type": "functional"}, "Staphylococcus aureus [12]": {"tested_on": "Staphylococcus aureus", "experiment": "Antibacterial activity against methicillin-resistant Staphylococcus aureus USA400 assessed as reduction in CFU at 4 x MIC preincubated for 24 hrs in Tryptic soy broth followed by incubation for 18 to 20 hrs on TSA plate by time-kill assay", "assay_type": "functional, organism-based"}, "Staphylococcus aureus [13]": {"tested_on": "Staphylococcus aureus", "experiment": "Resistance index, ratio of MIC for antibacterial activity against methicillin-resistant Staphylococcus aureus USA400 treated repeatedly over 6 passages to MIC for antibacterial activity against methicillin-resistant Staphylococcus aureus USA400 treated for 18 to 20 hrs by broth microdilution assay", "assay_type": "functional"}, "J774": {"tested_on": "J774", "experiment": "Cytotoxicity against mouse J774 cells reduction in cell viability up to 32 ug/ml incubated for 24 hrs by MTS assay", "assay_type": "cell-based", "settings": "j774, 24 h"}},
  "note": "Activity calls are given as the source filed them. The calls are words filed in the database; no cut-off is given here.",
  "data": [
    {"smiles": "C/C(=N\\NC(=N)N)c1sc(-c2ccc(C#CC3(O)CCCCC3)cc2)nc1C", "values": [
      {"measurement": "inhibition", "setting": "Staphylococcus aureus [1]", "value": "Active"},
      {"measurement": "MIC", "setting": "Staphylococcus aureus [2]", "value": 1, "unit": "µg/mL"},
      {"measurement": "MBC", "setting": "Staphylococcus aureus [3]", "value": 8, "unit": "µg/mL"},
      {"measurement": "MBC", "setting": "[4]", "value": 4, "unit": "µg/mL"},
      {"measurement": "MBC", "setting": "Streptococcus pneumoniae [5]", "value": 8, "unit": "µg/mL"},
      {"measurement": "MIC", "setting": "Acinetobacter baumannii", "value": 64, "unit": "µg/mL"},
      {"measurement": "MIC", "setting": "Escherichia coli", "value": "> 64", "unit": "µg/mL"},
      {"measurement": "Activity", "setting": "Staphylococcus aureus [6]", "value": "Active"},
      {"measurement": "Ratio", "setting": "Staphylococcus aureus [7]", "value": 2},
      {"measurement": "Ratio", "setting": "Staphylococcus aureus [8]", "value": 2},
      {"measurement": "Ratio", "setting": "Enterococcus faecalis", "value": 2},
      {"measurement": "Ratio", "setting": "Enterococcus faecium", "value": 2},
      {"measurement": "Ratio", "setting": "Listeria monocytogenes", "value": 2},
      {"measurement": "Ratio", "setting": "Streptococcus pneumoniae [9]", "value": 2},
      {"measurement": "Ratio", "setting": "Streptococcus pneumoniae [10]", "value": 2}
    ]},
    {"smiles": "C/C(=N\\NC(=N)N)c1sc(-c2ccc(C#Cc3ccc(C)s3)cc2)nc1C", "values": [
      {"measurement": "Activity", "setting": "Staphylococcus aureus [11]", "value": 3, "unit": "log10CFU"},
      {"measurement": "MIC", "setting": "Staphylococcus aureus [2]", "value": 4, "unit": "µg/mL"},
      {"measurement": "MBC", "setting": "Staphylococcus aureus [3]", "value": 8, "unit": "µg/mL"},
      {"measurement": "MBC", "setting": "[4]", "value": 4, "unit": "µg/mL"},
      {"measurement": "MBC", "setting": "Streptococcus pneumoniae [5]", "value": 16, "unit": "µg/mL"},
      {"measurement": "MIC", "setting": "Acinetobacter baumannii", "value": 32, "unit": "µg/mL"},
      {"measurement": "MIC", "setting": "Escherichia coli", "value": 64, "unit": "µg/mL"},
      {"measurement": "inhibition", "setting": "Staphylococcus aureus [12]", "value": "Active"},
      {"measurement": "Ratio", "setting": "Staphylococcus aureus [13]", "value": 1}
    ]},
    {"smiles": "C/C(=N\\NC(=N)N)c1sc(-c2ccc(C#CC(C)(C)O)cc2)nc1C", "values": [
      {"measurement": "MIC", "setting": "Staphylococcus aureus [2]", "value": 1, "unit": "µg/mL"},
      {"measurement": "MBC", "setting": "Staphylococcus aureus [3]", "value": 16, "unit": "µg/mL"},
      {"measurement": "MBC", "setting": "[4]", "value": 4, "unit": "µg/mL"},
      {"measurement": "MBC", "setting": "Streptococcus pneumoniae [5]", "value": 8, "unit": "µg/mL"},
      {"measurement": "MIC", "setting": "Acinetobacter baumannii", "value": 64, "unit": "µg/mL"},
      {"measurement": "MIC", "setting": "Escherichia coli", "value": "> 64", "unit": "µg/mL"},
      {"measurement": "Ratio", "setting": "Staphylococcus aureus [7]", "value": 2},
      {"measurement": "Ratio", "setting": "Staphylococcus aureus [8]", "value": 2},
      {"measurement": "Ratio", "setting": "Enterococcus faecalis", "value": 2},
      {"measurement": "Ratio", "setting": "Enterococcus faecium", "value": 2},
      {"measurement": "Ratio", "setting": "Listeria monocytogenes", "value": 2},
      {"measurement": "Ratio", "setting": "Streptococcus pneumoniae [9]", "value": 2},
      {"measurement": "Ratio", "setting": "Streptococcus pneumoniae [10]", "value": 2}
    ]},
    {"smiles": "C/C(=N\\NC(=N)N)c1sc(-c2ccc(C#Cc3ccc(N)cc3)cc2)nc1C", "values": [
      {"measurement": "Activity", "setting": "Staphylococcus aureus [11]", "value": 3, "unit": "log10CFU"},
      {"measurement": "MIC", "setting": "Staphylococcus aureus [2]", "value": 16, "unit": "µg/mL"},
      {"measurement": "MBC", "setting": "Staphylococcus aureus [3]", "value": 32, "unit": "µg/mL"},
      {"measurement": "MBC", "setting": "[4]", "value": 2, "unit": "µg/mL"},
      {"measurement": "MBC", "setting": "Streptococcus pneumoniae [5]", "value": 32, "unit": "µg/mL"},
      {"measurement": "MIC", "setting": "Acinetobacter baumannii", "value": 64, "unit": "µg/mL"},
      {"measurement": "MIC", "setting": "Escherichia coli", "value": "> 64", "unit": "µg/mL"},
      {"measurement": "inhibition", "setting": "Staphylococcus aureus [12]", "value": "Active"},
      {"measurement": "Ratio", "setting": "Staphylococcus aureus [13]", "value": 1},
      {"measurement": "Activity", "setting": "J774", "value": "Non-Toxic"}
    ]}
  ]
}
